Test results taken from patent US20080096963A1, “Use Of A Fatty Acid For Preparing A Topical Composition For Allaying Inflammatory Reaction Due To Vennemous Hymenoptera Strings” (CEREP, priority 2004, published 2008).

Molecular target: bee venom PLA2 (Apis mellifera, UniProt P00630)
Assay type: biochemical
Settings: pH 9

Sequence of bee venom PLA2 (P00630 34-167 limits assumed): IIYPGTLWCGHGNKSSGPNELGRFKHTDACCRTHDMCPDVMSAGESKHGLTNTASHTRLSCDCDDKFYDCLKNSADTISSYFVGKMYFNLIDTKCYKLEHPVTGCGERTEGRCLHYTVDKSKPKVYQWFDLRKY

| SMILES | inhibition of the enzymatic activity of bee venom PLA2 |
| --- | --- |
| CCCCC/C=C\C/C=C\CCCCCCCC(=O)O [linoleic acid, linoleic (cis,cis-Δ^9-,Δ^12-octadecadienoic) acid] | inhibit the enzymatic activity of bee venom PLA2 in a dose-dependent manner |
| CCCCCCCC/C=C\CCCCCCCC(=O)O [oleic acid, oleic (cis-Δ^9-octadecenoic) acid] | inhibit the enzymatic activity of bee venom PLA2 in a dose-dependent manner |
